In patent US8952025B2, “Multifunctional radical quenchers and their uses” (Arizona Board of Regents, A Body Corporate of the State of …, priority 2010, dated 2015):
Entries after “also recorded” stand apart in the source; their conditions may differ.

Columns and labels:
CEM cells [1] = assay: Trypan blue cell viability assay, DEM-treated cells; assay type: cell-based, human
Description: Cell viability determined by trypan blue exclusion assay: This technique was used to assess the cytoprotective effects of the invention compounds in cultured cells pharmacologically treated to induce cell death by GSH depletion. DEM was used to deplete cellular GSH and induce oxidative stress. The viability of DEM-treated CEM cells was determined by their ability to exclude the dye trypan blue. Viable cells exclude trypan blue; whereas, non-viable cells take up the dye and stain blue. Briefly, CEM cells were grown in RPMI 1640 medium (GIBCO, Grand island, N.Y., USA) supplemented with 10% fetal calf serum, 2 mM glutamine (HyClone, South Logan, Utah, USA), 1% penicillin-streptomycin mix (Cellgro, Manassan, Va., USA). Cells were seeded at a density of 1×10^6 cells/mL and treated with different concentrations of the invention compounds. Cells were incubated at 37° C. in a humidified atmosphere of 5% CO2 in air for three hours with 5 mM DEM. Cell viability was determined by staining cells with 0.4% trypan blue using a hemacytometer. At least 500 cells were counted for each experimental group. At the time of assay, >95% of DEM-treated cells were trypan blue positive; whereas, in non-DEM treated control cell cultures >95% cells were viable. Cell viability was expressed as the percentage of control. Data are expressed as means±S.E.M (n=3).

CEM cells [2] = assay: Reactive oxygen species (ROS) assay, DCFH-DA, DEM-treated cells; assay type: cell-based, human; details: for protection against ROS production (DCF fluorescence): 5 mM DEM
From the text: Cellular ROS production can be monitored using 2′,7′-dichlorodihydrofluorescein diacetate (DCFH-DA) (LeBel et al. (1992) Chem. Res. Toxicol. 5, 227-231) (Molecular Probes, Eugene, Oreg., USA), a membrane permeable and oxidant-sensitive fluorescent dye. DCFH-DA is a non-fluorescent derivative of fluorescein that emits fluorescence after being oxidized by hydrogen peroxide and other ROS. The emitted fluorescence is directly proportional to the concentration of hydrogen peroxide. DCFH-DA is nonionic and nonpolar and is easily taken up by cells. Once inside the cell, DCFH-DA is hydrolyzed by cellular esterases to non-fluorescent DCFH which traps the dye in the cell. In the presence of ROS including hydrogen peroxide, DCFH is oxidized to the highly fluorescent compound dichlorofluorescein (DCF). The intracellular DCF fluorescence is used as an index of cellular ROS production.
Cellular oxidative stress was induced by pharmacological depletion of glutathione (GSH) using the chemical diethylmaleate (DEM). ROS production was assessed by monitoring DCF fluorescence. Leukemic CEM cells (ATCC®, catalogue number CRL-2264) were cultured in RPMI (GIBCO, Grand island, N.Y., USA) with 10% FCS, 2 mM glutamine (HyClone, South Logan, Utah, USA) and 1% penicillin-streptomycin mix antibiotics (Cellgro, Manassan, Va., USA) supplements. Cells were maintained in the log phase at a concentration of between 1×10^5 and 1×10^6 cells/mL. CEM cells (1×10^6 cell/mL) were plated (1 mL) in twelve well plate and treated with the invention compounds (final concentration 1 and 5 μM), and incubated for two hours at 37° C., 5% CO2. The compounds tested were prepared by first making stock solutions (2.5 mM) in dimethylsulfoxide (DMSO). Cells were treated with 5 mM DEM for 30 minutes and collected by centrifugation at 300×g for 3 min and then washed twice with Hanks' Balanced Salt Solution (HSSB) buffer (Sigma, St. Louis, Mo. USA). Cells were resuspended in HSSB buffer+10 mM glucose and incubated at 37° C. in the dark for 20 min with 10 μM DCFH-DA. Cells were collected by centrifugation at 300×g for 3 min and then washed twice with HSSB buffer. The samples were analyzed immediately by flow cytometry (Becton-Dickinson FACS Caliber), (Cell Quest software, BD Biosciences) using 488 nm excitation laser and FL1-H channel 538 nm emission filter. In each analysis, 10,000 events were recorded after cell debris were electronically gated out. Results obtained were verified by repeating experiments N=3 independent experiments. Authentic hydrogen peroxide was used as a positive control.

CEM leukemia cells = assay: Mitochondrial membrane potential (Δψm) assay, TMRM, FACS; assay type: cell-based, human; details: pretreatment 0.5, 1 or 2.5 μM overnight, DEM
Description: Measurement of Mitochondrial Membrane Potential (Δψm)(FACS). For the determination of Δψm, CEM leukemia cells were pre-treated with or without the test compounds. The cells were treated with 5 mM DEM for 120 minutes, collected by centrifugation at 300×g for 3 minutes and then washed twice with phosphate buffered saline. The cells were re-suspended in HSSB buffer and incubated at 37° C. in the dark for 15 minutes with 250 nM TMRM (a cationic dye which accumulates within mitochondria in accordance with the Δψm Nernst potential). Cells were collected by centrifugation at 300×g for 3 minutes and then washed twice with phosphate buffered saline. The samples were analyzed immediately by flow cytometry using 488 nm excitation laser and the FL2-H channel. The results obtained were verified in three independent experiments. The protonophore FCCP (30 μM) was used to dissipate the chemiosmotic proton gradient (ΔμH^+) and served as a control for loss of Δψm. In each analysis, 10,000 events were recorded.

[3] = C11-BODIPY581/591 oxidation lipid peroxidation assay in liposomes; details: 10 mM AAPH, phospholipid liposomes, phosphate buffer, 40° C.
Description: To overcome the problem of spectral overlap using cis-parinaric acid, a fluorescence assay for lipid peroxidation using a lipophilic probe belonging to the BODIPY class of fluorescent dyes was used. C11-BODIPY^581/591 (4,4-difluoro-5(4-phenyl-1,3-butadienyl)-4-bora-3a,4a-diaza-s-indacene-3-propionic acid) fluorescence shifts from red to green upon oxidation. C11-BODIPY^581/591 (Molecular Probes, Eugene, Oreg., USA) stock solution concentrations were determined by measuring the absorption of C11-BODIPY^581/591 at 582 nm using a molar extinction coefficient of 140,000 mol^−1 cm^−1(R. P. Haugland, (1999) Handbook of Fluorescent Probes and Research Chemicals, Molecular Probes, Inc., Eugene, Oreg.). The lipid peroxidation inducer 2,2′-Azobis (2-amidino-propane dihydrochloride) (AAPH) and the antioxidant compound α-tocopherol were obtained from Sigma (St. Louis, Mo., USA). Phospholipid bilayers were prepared from 1-stearoyl-2-oleoyl-phosphatidylcholine (SOPC) and 1,2-dilinoleoyl-phosphatidylcholine (DLPC) and were purchased from Avanti® polar lipids, INC (Alabaster, Ala., USA).
Phosphotidylcholine (PC) liposomes were prepared as described before (Guey-Shuang et al. (1982) Lipids. 17, 403-413). Briefly, DLPC (25 mg) and SOPC (25 mg) were dissolved in chloroform and the solvent was removed by nitrogen evaporation (˜2 hours to give a thin film of PC in a round bottom flask. The lipid film was hydrated with 50 mL of 10 mM Tris-HCl (pH 7.4), 100 mM KCl, shaken and sonicated for 15 seconds. The liposomes obtained were filtered several times through 0.2 μM membrane filter.
C11 BODIPY^581/591 was incorporated into liposomes and oxidized by peroxyl radicals derived from the decomposition of AAPH in presence and absence of the compounds. […] Liposomes were pre-incubated for 10 min with 200 nM C11 BODIPY^581/591 to allow their incorporation into the lipid phase of the liposomes. After the addition of AAPH (10 mM) the decay of red fluorescence was followed at λ exc=570 nm, λ em=600 nm. Relative fluorescence units were normalized to 100% intensity. Results obtained were verified by repeating experiments N=3 independent experiments.

cytochrome c = assay: Cytochrome c reduction assay; assay type: biochemical; details: 100 μM compound, 10 μM cytochrome c, absorbance 550 nm
Description: The rate of cytochrome c (10 μM) reduction was measured by monitoring the change in absorbance at 550 nm. Briefly the reaction was initiated by addition of 100 μM of the invention compounds to a mixture containing 50 mM phosphate buffer, 0.1 mM EDTA, pH 7.8, and 10 μM cytochrome c (Sigma, St. Louis, Mo. USA). For cytochrome c reduction by superoxide, xanthine oxidase (0.01 IU/mL) (Sigma, St. Louis, Mo. USA) was used in presence of xanthine (50 μM).

[4] = James et al. (2005); cited from earlier work

Row | Compound | EC50 (CEM cells [1]; Homo sapiens, CCRF-CEM, CEM cells, pre-treatment 2 h, diethylmaleate 3 h, trypan blue exclusion, read-out: EC50 (effective concentration that prevents 50% of cell death)) [nM] | maintaining cell viability (trypan blue exclusion) (CEM cells [1]; overnight incubation, then 5 mM DEM, 3 h) | protection against ROS production (DCF fluorescence) (CEM cells [2]; compound 1 μM) | protection against ROS production (DCF fluorescence) (CEM cells [2]; compound 5 μM) | suppression of ROS production (DCF fluorescence) (CEM cells [2]; pretreatment 0.5, 1 or 5 μM, DEM) | maintaining mitochondrial membrane potential Δψm (CEM leukemia cells) | quenching of lipid peroxidation (retention of C11-BODIPY581/591 fluorescence) [3] | reduction of cytochrome c (cytochrome c) | calculated octanol-water partition coefficient [4]
1 | Cc1cc(N(C)C)nc(CCCCCCCCCCO)c1O [Compound B, 2-N,N-dimethylamino-5-hydroxy-4-methyl-6-(10-hydroxydecyl)-pyridine] | 300 ± 22 | quite effective in maintaining cell viability following DEM treatment; also recorded: superior to idebenone in maintaining the viability of DEM-treated cells | less effective at this concentration | significantly more effective in blocking diethylmaleate-induced ROS production compared to idebenone or its reduced form (Idebenol); also recorded: protected the cells | more effective than idebenone at all tested concentrations; also recorded: more effective than idebenone in suppressing ROS in a dose-dependent fashion | clearly more effective in maintaining mitochondrial membrane potential; also recorded: very favorable properties | about as effective as C | clearly reduce cytochrome c | 
2 | COC1=C(OC)C(=O)C(C/C=C(\C)CC/C=C(\C)CC/C=C(\C)CC/C=C(\C)CC/C=C(\C)CC/C=C(\C)CC/C=C(\C)CC/C=C(\C)CC/C=C(\C)CCC=C(C)C)=C(C)C1=O [coenzyme Q10] |  |  |  |  |  |  |  |  | > 10^20
